{
  "source": "patent US4186184A",
  "about": "“Selective administration of drug with ocular therapeutic system” (priority 1979, dated 1980)",
  "key": {"[1]": {"conditions": "in vivo", "description": "Ocular dispensing system of elliptical shape for administering a drug to the tissue compartments of the eye over a prolonged period of time and having a length of 4 to 20 millimeters, a width of 1 to 15 millimeters and a thickness of 0.1 to 4 millimeters are prepared by mixing liquid polydimethylsiloxane, chloramphenicol and stannous octate and curing the mixture at room temperature. The resulting matrix is placed in a pre-shaped and sized ethylene-vinyl acetate copolymer tube and the opened end adhesively sealed to provide a solid matrix containing drug. Then, 90% of the exposed surface of the copolymer is surrounded with cross-linked drug impermeable polyamide."}, "[2]": {"assay": "Drug release rate through system membranes (Example 8)", "type": "physicochemical", "conditions": "area 1 cm^2, membranes 2 mils thick", "description": "Following the procedure set forth in Example 1, an ocular drug delivery system shaped like a circle 6 mm by 2.5 mm is prepared according to the described procedure except one of the membrane is formed from commercially available laminate of cellulose acetate and nylon-66 that is substantially impermeable to the passage of hydrocortisone alcohol in the reservoir of the system. The area of the system is 1 cm^2, and the membranes are 2 mils thick. The drug release rate for the ethylene-vinyl acetate copolymer film which is permeable to the steroid is about 40 micrograms per hour, and the release rate for the laminate cellulose acetate nylon is about 1 to 2 micrograms per hour."}, "[3]": {"assay": "Release of drug from osmotic ocular therapeutic system in simulated ocular aqueous environment (UV, 215 nm)", "type": "physicochemical", "description": "A drug delivery system for the prolonged release of pilocarpine nitrate to the internal part of the eye is prepared and tested in the following manner: first, a reservoir formed of a drug and a polymer in intimate mixture is prepared according to the described procedure. A 7 gram portion of micronized pilocarpine nitrate is admixed with 3 grams of an ethylene-vinyl acetate copolymer having a vinyl acetate content of about 40% and having a melt index of […], as measured by ASTM D 1238-modified test. The copolymer has a tensile strength of about 600-700 psi and an elongation at break of 1400% to 1500%. It is impermeable to pilocarpine nitrate but permeable to water. […] The pilocarpine nitrate micronized particles are on average ~40 microns in diameter. The mixture is heated to 120° C. and cast as a 0.6 mm thick film. Next, a thin, water and drug impermeable thin film of butyl rubber is laminated to one side of the film thereby forming a system with a single drug portal. Finally, a number of 6 mm discs, suitable in size for insertion and retention in the eye, are cut from the 0.6 mm thick film. These discs have a portal with a surface area of […]. Osmotic bursting devices are the invention of Michaels and Gulloid as described in United States Patent Application Ser. No. 578,979 filed on May 19, 1975.\nThe release of drug from the ocular therapeutic system is determined by placing the systems in a simulated ocular aqueous environment. The outermost drug depots imbibs water through the sole exposed surface, swell, and burst their enclosing membranes, releasing their drug from the reservoir and exposing innermost depots. The amount of drug released in this rate controlled osmotic system is monitored by a UV spectrometer set at 215 nanometer wavelength. A relatively rapid release of pilocarpine nitrate begins to be noticed. The release continues for about 22 hours at a rate gradually decreasing from an initial 400 micrograms per hour to about 250 micrograms per hour after 22 hours. After 22 hours, the release rate falls rapidly."}, "[4]": {"conditions": "cited from earlier work"}, "[5]": {"conditions": "rabbit, in vivo"}, "[6]": {"parameters": "species or system New Zealand white rabbits", "conditions": "rabbit, in vivo", "description": "After the ocular systems were in the cul-de-sac 24 hours, they were removed, and a tear sample collected for measuring its pilocarpine content. Then, the systems were returned to the cul-de-sac for one-half hour, the rabbits sacrificed, and an aqueous humor sample immediately withdrawn for measuring the pilocarpine content thereof.\nThe sutures thus placed, restricted the movement of the ocular systems so that lateral and vertical movement of the ocular systems could not exceed a distance of more than 2 mm. Tear samples were collected and processed in the same way as were tear samples from ocular systems releasing 20 and 40 micrograms per hour.\nA second set of ocular systems were used in these experiments and they were manufactured with a size and shape that corresponded to the above ocular systems, except that these latter systems were unireleasing ocular systems. That is, the ocular systems released pilocarpine from a single portal. […] These systems were positioned in the cul-de-sac, with the portal oriented towards the sclera, and tears and aqueous humor samples were taken and analyzed for their pilocarpine content as described above. […]\nSelection of an ocular drug receptor site for administering a drug thereto can be easily ascertained by following the above procedures. […] For example, the physiological effect can be determined by measuring ocular pressure and increased vision. […]"}, "[7]": {"conditions": "Example 16, single portal osmotic system"}},
  "data": [
    {"smiles": "O=C(N[C@H](CO)[C@H](O)c1ccc([N+](=O)[O-])cc1)C(Cl)Cl", "note": "[chloramphenicol]", "values": [
      {"measurement": "Discomfort or irritation in the eye", "setting": "[1]", "value": "no discomfort or irritation"}
    ]},
    {"smiles": "C[C@]12CCC(=O)C=C1CC[C@@H]1[C@@H]2[C@@H](O)C[C@@]2(C)[C@H]1CC[C@]2(O)C(=O)CO", "note": "[hydrocortisone alcohol]", "values": [
      {"measurement": "Drug release rate for the ethylene-vinyl acetate copolymer film", "setting": "[2]", "value": "about 40 micrograms per hour"}
    ]},
    {"smiles": "CC[C@@H]1C(=O)OC[C@@H]1Cc1cncn1C", "note": "[pilocarpine nitrate]", "values": [
      {"measurement": "Duration of release", "setting": "[3]; Example 16, release rate falls rapidly thereafter", "value": "about 22 hours"},
      {"measurement": "Release rate after 22 hours", "setting": "[3]; [7]", "value": "about 250 micrograms per hour"},
      {"measurement": "Release rate, initial", "setting": "[3]; [7]", "value": 400, "unit": "micrograms per hour"},
      {"measurement": "Solubility in water", "setting": "[4]", "value": "about 25%"},
      {"measurement": "Aqueous concentrations of osmotic system compared with diffusional systems", "setting": "[5]", "value": "substantially similar"}
    ]},
    {"smiles": "CC[C@@H]1C(=O)OC[C@@H]1Cc1cncn1C", "note": "[pilocarpine]", "values": [
      {"measurement": "Absorption and transfer into aqueous humor from bulbar side relative to palpebral side", "setting": "[6]", "value": "at least 10 times"},
      {"measurement": "Aqueous humor pilocarpine concentration increase per 5 μg/hr increase in rate of release per portal", "setting": "[5]", "value": 0.4, "unit": "μg/ml per 5 μg/hr"},
      {"measurement": "Mean aqueous humor pilocarpine concentration with palpebral delivery relative to bulbar delivery", "setting": "[5]", "value": 11, "unit": "%"}
    ]}
  ]
}
